Ten molecules from patent publication US4430331A, “Antiarrhytmic benzylimidazole” (Shionogi & Co., Ltd., priority 1981, dated 1984) can be followed below.

Series [1] concerns atrium dextrum specimens. As to the kind of experiment: Antiarrhythmic activity (cardiomuscular action to the maximal stimulus frequency). Conditions: isolated guinea-pig atrium dextrum, Krebs-Ringer-sodium carbonate solution, 30° C., after 10 minutes treatment with test compound. Details: species or system guinea-pigs. The protocol:
(a) Antiarrhythmic activity (cardiomuscular action to the maximal stimulus frequency) A certain number of atrium dextrum specimens were made by extracting the heart from male and female guinea-pigs weighing on average 350 to 600 g, and then suspended and fixed in a glass vessel filled with Krebs-Ringer-sodium carbonate solution (30° C.) in which a mixture of 95% oxygen and 5% carbon dioxide was continuously introduced. The automatism of the specimens was recorded on the oscillograph. Maximal stimulus frequency was confirmed by affording a stimulus of the atrium dextrum from the exciting electrode equipped to a retainer. After previously treating with a test compound for 10 minutes, the reducing percent (%) of the maximal stimulus frequency was calculated by observing the reduction of the maximal frequency [[…].: Brit. […]., 1, 90 (1946)].

Series [2] relates to SLC-DDY male mice. In words: in vivo. The conditions noted are these: LD50, up and down method, into tail venae (intravenous), SLC-DDY male mice 25 to 35 g. The series is classed as in vivo. From the text: (§1) Lethal dose was obtained by administering a test compound in the form of a physiological brine solution into the tail venae of SLC-DDY male mice weighing from 25 to 35 g and calculating the value of LD50 by the up and down method [Brownlee, K. A. et al.: J. Am. Stat. As., 48, 262 (1953)].

The nature of series [3]: in vivo. Conditions: mouse, in vivo; LD50, up and down method, into tail venae (intravenous), SLC-DDY male mice 25 to 35 g; read-out: Acute toxicity (LD50). The series is classed as in vivo.
Excerpt: as §1

As to `C=C(c1ccccc1OCC(O)CNC(C)C)n1cncn1` (stereo not shown) [Example 31], in series [1], the “Reducing percent (%) of Maximal stimulus frequency” value (“Reducing percent (%)” below) is recorded as 42.8%. In addition, the “Acute toxicity (LD50)” value in series [2] came out at 36.4 mg/kg.
For the molecule `C=C(c1ccc(Cl)c(Cl)c1OCC(O)CNC(C)C)n1ccnc1` (stereo not shown) [Example 26], in series [1], the “Reducing percent (%)” value was found to be 35.8%. For the same molecule, the “Acute toxicity (LD50)” value in series [2] was 33.9 mg/kg.
As to `C=C(c1ccccc1OCC(O)CNC(C)C)n1cnc(C(=O)OCC)c1C` (stereo not shown) [Example 17], the “Reducing percent (%)” value in series [1] is 31.7%. The LD50 (usually the dose at which mortality reaches 50%) in series [3] came to 36.4 mg/kg.
Take `C=C(c1c(C)ccc(Cl)c1OCC(O)CNC(C)C)n1ccnc1` (stereo not shown) [Example 30]: the “Reducing percent (%)” value in series [1] came to 50.6%. Moreover, in series [2], the “Acute toxicity (LD50)” value is listed as 28.5 mg/kg.
With `C=C(c1ccccc1OCC(O)CNC(C)C)n1cnc(C)c1` (stereo not shown) [Example 24], the “Reducing percent (%)” value in series [1] is on record as 36.1%. The “Acute toxicity (LD50)” value in series [2] stood at 36.4 mg/kg.
Take `C=C[C@H]1C[N@@]2CC[C@H]1C[C@@H]2[C@@H](O)c1ccnc2ccc(OC)cc12` [Quinidine, reference compound]: the “Reducing percent (%)” value in series [1] was 22.8%.
For the molecule `C=C(c1ccccc1OCC(O)CNC(C)(C)C)n1cccn1` (stereo not shown) [Example 25], the “Reducing percent (%)” value in series [1] worked out at 39.2%. Besides, the “Acute toxicity (LD50)” value in series [2] is 22.3 mg/kg.
On to `C=C(c1c(Cl)ccc(Cl)c1OCC(O)CNCC(C)C)n1ccnc1` (stereo not shown) [Example 13], for which the “Reducing percent (%)” value in series [1] was determined as 34.5%. Besides, the “Acute toxicity (LD50)” value in series [2] was determined as 15.5 mg/kg.
As to `C=C(c1ccccc1OCC(O)CNC(C)(C)C)n1cnc2ccccc21` (stereo not shown) [Example 22], in series [1], the “Reducing percent (%)” value turned out to be 35.8%. Moreover, the “Acute toxicity (LD50)” value in series [2] is recorded as 26.5 mg/kg.
The corresponding values for `C=C(c1c(Cl)ccc(Cl)c1OCC(O)CNC(C)C)n1ccnc1` (stereo not shown) [Example 7] are 38.1% and 19.8 mg/kg.
